Data: patent US8507219B2, “Method of treating inflammation with statins” (MUSC Foundation for Research Development, priority 1997, dated 2013)

Key:
[1] = X-ALD patients; cited from earlier work
[2] = tested on: ceramide production in rat primary astrocytes; assay: Degradation of sphingomyelin to ceramide (DAG kinase assay, HPTLC) in rat primary astrocytes; format: cell-based
Procedure: Lipid extraction Approximately 1.0×10^6 cells were exposed to different cytokines in the presence or absence of antioxidants for different periods and lipids were extracted according to the methods described by Welsh (1996).
Quantification of sphingomyelin by HPTLC and densitometry Sphingomyelin was separated from total lipid extracts by HPTLC (LPK-plates from Whatman Labsales, USA) as described (Ganser et al., 1988) for phospholipids with the modification, that the plate was overrun for 30 min during its development and was dried overnight in vacuum desicator. Sphingomyelin was quantitated by densitometric scanning using Imaging Densitometer (Model GS-670; Bio-Rad, USA) and software provided with the instrument by the manufacturer.
Quantification of ceramide levels by diacylglycerol kinase assay Ceramide content was quantified essentially according to Priess et al. using diacylglycerol (DAG) kinase and [γ-^32P]ATP (Priess et al., 1986). Briefly, dried lipids were solubilized in 20 μl of an octyl β-D-glucoside/cardiolipin solution (7.5% octyl β-D-glucoside, 5 mM cardiolipin in 1 mM DTPA) by sonication in a sonicator bath. […] The labeled ceramide 1-phosphate was resolved with a solvent system consisting of methyl acetate: n-propanol:chloroform:methanol:0.25% KCl in water:acetic-acid (100:100:100:40:36:2). A standard sample of ceramide was phosphorylated under identical conditions and developed in parallel. […] Quantification of ceramide 1-phosphate was carried out by autoradiography and densitometric scanning using Imaging Densitometer (Model GS-670; Bio-Rad, USA). Values are expressed either as arbitrary units (absorbance) or as percent change.
Lipid Extraction Approximately 1.0×10^6 cells were exposed to different cytokines in the presence or absence of antioxidants for different periods, and lipids were extracted according to the methods described by Welsh (1996).
Quantification of Sphingomyelin by High Performance TLC and Densitometry Sphingomyelin was separated from total lipid extracts by high performance TLC (LHPK plates from Whatman) as described by Ganser et al. (1988) for phospholipids with the following modification: the plate was overrun for 30 min during its development and was dried overnight in vacuum desiccator. Sphingomyelin was quantitated by densitometric scanning using Imaging Densitometer (model GS-670; Bio-Rad), and software was provided with the instrument by the manufacturer.
Quantification of Ceramide Levels by Diacylglycerol Kinase Assay Ceramide content was quantified essentially according to Priess et al. (1986) using diacylglycerol (DAG) kinase and [γ-^32P]ATP. Briefly, dried lipids were solubilized in 20 μl of an octyl β-D-glucoside/cardiolipin solution (7.5% octyl β-D-glucoside, 5 mM cardiolipin in 1 mM DTPA) by sonication in a sonicator bath. […] The labeled ceramide-1-phosphate was resolved with a solvent system consisting of methyl acetate:n-propyl alcohol:chloroform:methanol, 0.25% KCl in water:acetic acid (100:100:100:40:36:2). A standard sample of ceramide was phosphorylated under identical conditions and developed in parallel. […] Quantification of ceramide-1-phosphate was carried out by autoradiography and densitometric scanning using Imaging Densitometer (model GS-670; Bio-Rad). Values are expressed either as arbitrary units (absorbance) or as percent change.

[3] = tested on: intracellular GSH in rat primary astrocytes; assay: Intracellular GSH / GSSG in rat primary astrocytes; format: cell-based; conditions: 10 mM NAC 1 h; TNF-α or IL-1β 50 ng/ml; diamide 0.5 mM
Procedure: Measurement of reduced glutathione (GSH) concentration in rat primary astrocytes Concentration of intracellular GSH was measured using a colorimetric assay kit for GSH from RandD, USA. Briefly, 2×10^6 cells were homogenized in 500 μl of ice-cold 5% metaphosphoric acid and centrifuged at 3000 g for 10 min. Supernatants were used to assay GSH using 4-chloro-1-methyl-7-trifluoromethyl-quinolinium methylsulfate and 30% NaOH at 400 nm.
Measurement of GSH (Reduced Glutathione) and GSSG Oxidized Glutathione Concentration of intracellular reduced GSH was measured using a calorimetric assay kit for GSH from R & D Systems. Briefly, 2×10^6 cells were homogenized in 500 μl of ice-cold 5% metaphosphoric acid and centrifuged at 3000×g for 10 min. Supernatants were used to assay GSH using 4-chloro-1-methyl-7-trifluoromethylquinolinium methylsulfate and 30% NaOH at 400 nm. Concentration of GSSG was determined according to the method of Griffith (1980) after derivatization with 2-vinylpyridine for 30 min at room temperature.

[4] = tested on: rat primary oligodendrocytes; assay: Apoptosis (DNA fragmentation, laddering) in rat primary oligodendrocytes; format: cell-based; conditions: 10 mM NAC 1 h; diamide 0.5 mM, TNF-α 50 ng/ml or C2-ceramide; 12 h
Procedure: Detection of DNA fragmentation Cells (1×10^6) were pelleted in an eppendorf tube by centrifugation at 1,000 rpm for 5 min, washed with PBS (pH 7.4), resuspended gently in 50 μl of a lysis buffer [200 mM NaCl, 10 mM Tris-HCl (pH 8.0), 40 mM EDTA (pH 8.0), 0.5% SDS, 400 ng RNase A/μl] and incubated at 37° C. for 1 h. The lysate received 200 μl of the digestion buffer [200 mM NaCl, 10 mM Tris-HCl (pH 8.0), 0.5% SDS, 125 ng proteinase K/μl]. The contents were mixed by inversion several times and then incubated at 50° C. for 2 h. An equal volume of a mixture phenol (pH 8.0), chloroform and isoamyl alcohol (25:24:1, v/v) was added, gently mixed for 10 min, and stored at room temperature for 2 min. […] The gel was stained with ethidium bromide and DNA-intercalated ethidium fluorescence was photographed on Polaroid film 665 (P/N) using an orange filter. […]
Detection of DNA Fragmentation Cells (1×10^6) were pelleted in an Eppendorf tube by centrifugation at 1000 rpm for 5 min, washed with phosphate-buffered saline, pH 7.4, resuspended gently in 50 μl of a lysis buffer (200 mM NaCl, 10 mM Tris-HCl, pH 8.0, 40 mM EDTA, pH 8.0, 0.5% SDS, 400 ng of RNase A/μl), and incubated at 37° C. for 1 h. […] The gel was stained with ethidium bromide, and DNA-intercalated ethidium fluorescence was photographed on Polaroid film 665 (P/N) using an orange filter. […]

Compound | reduction of VLCFA [1] | increase in ceramide production [2] | intracellular level of GSH / GSSG [3] | ceramide formation and DNA fragmentation / apoptosis [4]
CCCCCCCC/C=C\CCCCCCCC(=O)OCC(COC(=O)CCCCCCC/C=C\CCCCCCCC)OC(=O)CCCCCCC/C=C\CCCCCCCC [trioleate] | 50% | – | – | –
CN(C)C(=O)/N=N/C(=O)N(C)C [diamide] | – | about 7 fold | increased the intracellular level of GSSG | induced internucleosomal DNA fragmentation
